Measured values reported in publication PMC12305494, “Discovery of PXR Antagonist MI891 and PXR Degrader MI1013 and Their Roles in Hepatic Gene Regulation” (Journal of Medicinal Chemistry, 2025).

Assays:
vitamin D receptor (VDR) = biological target: T1, vitamin D receptor (VDR) (Homo sapiens, UniProt P11473); assay: VDR luciferase reporter assay, agonistic and antagonistic setups; type: cell-based; conditions: prototype ligand calcitriol
T1 construct: expressed in transfected cells
Procedure: (§1) For the farnesoid X receptor (FXR) luciferase gene reporter assay, the full-length expression vector was paired with pFXRE-luc luciferase construct. The p1A1-luc construct was used in the aryl hydrocarbon receptor (AhR) assays with pRL-TK for normalization. Gal4-LXR-α/β, and Gal4-PPAR-γ constructs were used with the pGAL4 UAS-luc construct. For the VDR assay, expression vector pSG5-hVDR together with pVDRE-luc constructs was used. Firefly and Renilla luciferase activities were analyzed using a Dual reporter assay (Promega). For the nuclear receptor assays, prototype ligands were used at the following concentrations: Calcitriol for VDR (100 nM), GW3965 for LXRα and LXRβ (10 μM), 6-OCA for FXR (1 μM), fenofibrate for PPARα (10 μM), estradiol for ERα and β (10 μM), rosiglitazone for PPARγ (10 μM), 3-MC for AhR (5 μM), and TCPOBOP for mCAR (10 μM). Detailed descriptions and protocols are detailed in our recent publication. ,

rodent PXRs = assay: Rodent PXR orthologue luciferase reporter assays; type: cell-based, rat/mouse; conditions: PCN as prototypical inducer
Procedure: The CYP3A4 gene promoter luciferase reporter construct (p3A4-luc) bears a distal XREM (−7836/–7208) and a proximal promoter sequence (prPXRE, −362/+53) from the CYP3A4 gene promoter region. […] The human PXR expression vector (variant 1, NM_003889.3) as well as vectors for mouse, rat, and monkey orthologues were described in our recent paper (39). […] Rhesus monkey, mouse, and rat PXR expression vectors (100 ng/well each) were also obtained from GenScript. […] Carlberg (University of Kuopio, Kuopio, Finland).
The cells were cultured in DMEM medium (Merck) supplemented with 10% fetal bovine serum.

PPARα = PPARα (Homo sapiens, UniProt Q07869); assay: PPARα luciferase reporter assay, agonistic and antagonistic setups; type: cell-based; conditions: prototype ligand fenofibrate
PPARα, sequence (Q07869 whole entry): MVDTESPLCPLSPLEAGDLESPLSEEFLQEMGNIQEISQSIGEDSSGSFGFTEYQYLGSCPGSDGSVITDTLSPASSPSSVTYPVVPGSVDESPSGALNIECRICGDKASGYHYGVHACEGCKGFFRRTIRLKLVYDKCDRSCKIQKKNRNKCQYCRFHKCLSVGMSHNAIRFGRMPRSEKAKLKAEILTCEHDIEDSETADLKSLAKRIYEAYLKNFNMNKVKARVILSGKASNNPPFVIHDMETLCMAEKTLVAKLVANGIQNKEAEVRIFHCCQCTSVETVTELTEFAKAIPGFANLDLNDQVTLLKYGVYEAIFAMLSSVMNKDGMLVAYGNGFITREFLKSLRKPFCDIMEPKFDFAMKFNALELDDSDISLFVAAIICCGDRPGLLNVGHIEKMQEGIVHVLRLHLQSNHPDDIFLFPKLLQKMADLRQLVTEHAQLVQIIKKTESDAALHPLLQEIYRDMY
Procedure: as §1

[1] = Plasma stability, mouse plasma; type: in vitro ADME; conditions: up to 120 min, read-out: Plasma stability, t1/2 (min), mouse
Procedure: The protocols and reagents for the plasma protein binding assay and metabolic stability testing in human and mouse liver microsomes are detailed in our previous report. Briefly, metabolic stability of compounds was assessed at a single concentration (5 μM) at t = 0, 10, 30, and at t = 45 min. The stability of compounds was tested in human and mouse microsomes (ThermoFisher Scientific). Compounds were tested in triplicate with or without NADPH wells as a negative control for cytochrome P450 metabolism. In addition to hepatic metabolism, compounds were also subjected to degradation/modification by enzymes in human (VWR International) and mouse (Biomedica, CZ) plasma for t = 0, 30, 60, and at t = 120 min. Each assay included a substrate with known activity as a positive control. Time points were analyzed by LC/MS/MS. The peak area for the parent compound is compared to the time zero sample in order to assess the amount of remaining compound.

PXR-eGFP = biological target: T2, PXR-eGFP (Homo sapiens, UniProt O75469); assay: Microscale thermophoresis (MST); type: binding; conditions: COS-1 cell lysate expressing PXR-eGFP
T2 construct: expressed in transfected cells; host or cells: COS-1 (lysate used)
T2 sequence (O75469 whole entry): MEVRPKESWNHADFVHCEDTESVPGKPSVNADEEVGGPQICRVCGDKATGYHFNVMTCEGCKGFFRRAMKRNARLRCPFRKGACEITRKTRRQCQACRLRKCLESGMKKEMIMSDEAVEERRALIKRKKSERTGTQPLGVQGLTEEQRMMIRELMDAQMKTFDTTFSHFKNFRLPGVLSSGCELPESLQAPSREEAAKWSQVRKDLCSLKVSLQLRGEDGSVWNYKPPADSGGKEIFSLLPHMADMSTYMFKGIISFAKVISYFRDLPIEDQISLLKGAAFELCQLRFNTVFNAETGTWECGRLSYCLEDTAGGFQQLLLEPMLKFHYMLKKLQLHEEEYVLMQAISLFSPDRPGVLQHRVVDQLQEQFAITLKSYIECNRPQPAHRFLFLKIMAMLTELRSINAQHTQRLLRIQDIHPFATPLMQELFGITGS
Procedure: Microscale Thermophoresis (MST) experiments were conducted using the Monolith NT.115 (201810-BR-N006) (Blue/Red) instrument from NanoTemper Technologies GmbH, Germany. Cell lysates from COS-1 cells expressing PXR-eGFP served as the source of fluorescently labeled PXR, allowing the study of proteins in near-native conditions. COS-1 cells were transfected with 1000 ng of GFP-fused PXR (PXR-eGFP) using Lipofectamine 3000 and lysed 48 h post-transfection with RIPA buffer. To assess MI891 binding to PXR, cell lysates were diluted 2x with MST buffer (10 mM Na-phosphate buffer, pH 7.4, 1 mM MgCl2, 3 mM KCl, 150 mM NaCl, 0.05% Tween-20) to achieve optimal fluorescence levels. A titration series of MI891 (0–30 μM) was incubated with the diluted cell lysates. Measurements were taken in premium-coated capillaries (NanoTemper Technologies GmbH, MO-K025) using an LED source (Blue LED: Ex: 470(±10)/Em: 520(±10) nm) with an excitation wavelength of 470 nm and a 50% maximum stimulation time (MST). The excitation power was […]. Binding affinity was evaluated using the Hill model, with each data point representing mean fraction bound values from three independent experiments. The bound fraction of PXR-eGFP was determined, and fitting was performed using the Hill model method in MO Affinity Analysis v2.3 software (NanoTemper Technologies). […]

PXR = biological target: T3, PXR (Homo sapiens, UniProt O75469+Q96SW2); assay: Western blot of PXR in differentiated HepaRG cells; type: cell-based
T3 construct: differentiated hepatic HepaRG cells, which naturally express high PXR activity and expression; endogenous in cells; host or cells: differentiated HepaRG
T3 sequence (O75469 whole entry): as above
T3 sequence (Q96SW2 whole entry): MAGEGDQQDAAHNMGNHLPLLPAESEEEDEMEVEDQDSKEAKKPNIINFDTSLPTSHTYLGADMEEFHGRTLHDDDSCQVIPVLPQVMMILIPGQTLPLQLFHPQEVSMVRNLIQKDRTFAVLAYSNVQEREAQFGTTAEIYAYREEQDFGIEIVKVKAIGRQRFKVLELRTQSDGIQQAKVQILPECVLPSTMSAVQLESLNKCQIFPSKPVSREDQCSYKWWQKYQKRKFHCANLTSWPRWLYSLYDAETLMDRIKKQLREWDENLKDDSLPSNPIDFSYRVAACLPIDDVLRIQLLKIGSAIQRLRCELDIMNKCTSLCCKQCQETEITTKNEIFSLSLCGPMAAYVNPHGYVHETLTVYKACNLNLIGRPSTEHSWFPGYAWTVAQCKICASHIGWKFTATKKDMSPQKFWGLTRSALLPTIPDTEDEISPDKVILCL
Procedure: The harvested HepaRG cells were lysed in RIPA lysis buffer (Cat. no 89900, Thermo Scientific) containing Halt protease inhibitor cocktail inhibitors (Thermo Scientific). Protein concentration was measured using the Pierce BCA Protein Assay Kit (Cat. no. 23225, Thermo Scientific), samples were diluted in 4 × Laemmli sample buffer (Cat. no. 1610747, BioRad) supplemented with mercaptoethanol and heated at 95 °C for 5 min. Equal amounts of protein were loaded in 4–20% Mini-PROTEAN TGX Stain-Free Protein Gels (12 well. cat. no. 4561095 or 15 well, cat. no. 4568096, Bio-Rad), electrophorised, and transferred onto Trans-Blot Turbo Midi-size PVDF Membrane (cat. no. 1704273, Bio-Rad), and blocked with EveryBlot Blocking buffer for 10 min (cat. no. 12010020, Bio-Rad). The membranes were incubated overnight at 4 °C with the following antibodies: PXR polyclonal antibody (1:500, PA5–41170, Invitrogen), RXRA polyclonal antibody (1:1000, 21218–1-AP, Proteintech), and GSPT1 polyclonal antibody (1:1000, 10763-a-AP, Proteintech), washed with TBS-T for 3 times, and followed by incubation with goat antirabbit IgG (H + L) Secondary antibody, HRP (1:200, 000, 1 h, cat. no. 31460, Invitrogen). Chemiluminescence signals were detected using SuperSignal West Femto Maximum Sensitivity Substrate (cat. no. 34096, Thermo Scientific) and visualized by the ChemiDoc MP Imaging system (Universal Hood III, #731BR02821, Bio-Rad), and the bands were quantified using β-actin (1:2000, recombinant rabbit conjugated monoclonal antibody (JF53-10), cat. no. MA5-32540, Invitrogen) as loading control with ImageJ (version 1.54g) software.

T1 sequence (P11473 whole entry): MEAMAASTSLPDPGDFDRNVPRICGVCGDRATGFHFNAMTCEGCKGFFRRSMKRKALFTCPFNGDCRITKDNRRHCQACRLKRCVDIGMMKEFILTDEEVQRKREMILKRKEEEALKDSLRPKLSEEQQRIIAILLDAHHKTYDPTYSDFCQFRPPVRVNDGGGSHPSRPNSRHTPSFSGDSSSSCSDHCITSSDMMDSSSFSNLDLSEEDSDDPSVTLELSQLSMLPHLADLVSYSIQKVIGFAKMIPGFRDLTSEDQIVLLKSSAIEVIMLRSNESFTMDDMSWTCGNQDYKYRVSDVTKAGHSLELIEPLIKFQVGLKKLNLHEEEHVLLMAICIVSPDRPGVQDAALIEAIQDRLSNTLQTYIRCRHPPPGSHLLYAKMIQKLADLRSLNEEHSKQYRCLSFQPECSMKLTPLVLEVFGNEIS

Compound	agonistic or antagonistic activity on VDR (vitamin D receptor (VDR))	activity on rodent PXRs (rodent PXRs)	agonistic or antagonistic activity on PPARα (PPARα)	half-life [1] [min]	Kd (PXR-eGFP) [nM]	PXR degradation, time course (PXR; 2 μM, reversal of PXR expression after 72 h)	PXR degradation (Western blot) (PXR; 24 h)	PXR degradation Dmax (PXR; 24 h, Western blot) [%]	DC50 (PXR; 24 h, Western blot, read-out: PXR degradation DC50) [nM]
NC(=O)c1cc(Cn2cc(-c3c(-c4ccc(Cl)cc4)nc4c(F)cc(F)cn34)nn2)ccc1Cl [Compound 11, 2-Chloro-5-((4-(2-(4-chlorophenyl)-6,8-difluoroimidazo[1,2-a]pyridin-3-yl)-1H-1,2,3-triazol-1-yl)methyl)-benzamide]	no significant agonistic or antagonistic activities	no activities	no significant agonistic or antagonistic activities	> 120	1700	–	–	–	–
N-(4-((1-(2,5-dimethoxyphenyl)-5-methyl-1H-1,2,3-triazol-4-yl)sulfonyl)phenyl)-3-(2-(2-(2-(4-(((2-(2,6-dioxopiperidin-3-yl)-1,3-dioxoisoindolin-4-yl)amino)methyl)-1H-1,2,3-triazol-1-yl)ethoxy)ethoxy)ethoxy)propenamide [Compound 36]	–	–	–	–	–	significant degradation of PXR after 12 h	selectively degrades PXR	82	89
